Test results: patent US10857113B2, “Bezafibrate for the treatment of cancer” (Cipla Limited, priority 2016, dated 2020)
Like-named read-outs stand apart in the source and are kept apart here.

Assays:
RXF 393L [1] = experiment: In vitro 3D clonogenic assay; type: cell-based; conditions: Homo sapiens, 3D model, colony formation, 8 to 13 days continuous exposure
Description: (§1) Cell lines were routinely passaged one or twice weekly. All cells were grown at 37° C. in a humidified atmosphere with 5% CO2 in RPMI 1640 medium (Biochrom) supplemented with 10% (v/v) fetal calf serum and 0.1 mg/mL gentamicin. The percentage of viable cells was determined in a Neubauer-hemocytometer using trypan blue exclusion.
(§2) Tumor xenografts (patient-derived, as well as cell line-derived xenografts) were passaged as subcutaneous xenografts in NMRI nu/nu mice. At a tumor volume of 400-1,000 mm^3 tumor-bearing mice were sacrificed and tumors were collected under sterile conditions without delay according to the relevant Oncotest SOPs and the relevant animal welfare guidelines published by the FELASA and the GV-SOLAS. Tumors were mechanically disaggregated and subsequently incubated with an enzyme cocktail consisting of collagenase type IV (41 U/mL), DNase I (125 U/mL), hyaluronidase type III (100 U/mL), and dispase II (1.0 U/mL) in RPMI 1640 medium (Life Technologies) at 37° C. for 60-120 minutes. Cells were passed through sieves of 100 μm and 40 μm mesh size (Cell Strainer, BD Falcon™), and washed with RPMI 1640 medium. The percentage of viable cells was determined in a Neubauer-hemocytometer using trypan blue exclusion. Aliquots of the cells were frozen down, and stored in liquid nitrogen. On each day of an experiment, a frozen aliquot of tumor cells was thawed and used for preparation of assay plates.
(§3) The clonogenic assay was carried out in a 96 well plate format using ultra low attachment plates. For each test, cells were prepared as described above and assay plates were prepared as follows: each test well contained a layer of semi-solid medium with tumor cells (50 and a second layer of medium supernatant with or without test compound (100 The cell layer consisted of 2.5·10^3 to 1·10^4 tumor cells per well, which were seeded in 50 μL/well cell culture medium (IMDM, supplemented with 20% (v/v) fetal calf serum, 0.01% (w/v) gentamicin, and 0.4% (w/v) agar). After 24 hours the test compounds were added after serial dilution in cell culture medium, and left on the cells for the duration of the experiment (continuous exposure, 100 μl drug overlay). Every plate included six untreated control wells and drug-treated groups in duplicate at 9 concentrations. Cultures were incubated at 37° C. and 7.5% CO2 in a humidified atmosphere for 8 to 13 days and monitored closely for colony growth using an inverted microscope. Within this period, ex vivo tumor growth led to the formation of colonies with a diameter of >50 μm. At the time of maximum colony formation, counts were performed with an automatic image analysis system (CellInsight NXT, Thermo Scientific). 48 hours prior to evaluation, vital colonies were stained with a sterile aqueous solution of 2-(4-iodophenyl)-3-(4-nitrophenyl)-5-phenyltetrazolium chloride (1 mg/ml, 100 μl/well).

786-O [2] = experiment: In vitro 3D clonogenic assay; type: cell-based; conditions: Homo sapiens, 786-0, 3D model, colony formation, 8 to 13 days continuous exposure
Description: as §1, §2, §3

[3] = background statement; cited from earlier work
RXF 1220L = experiment: In vitro 2D assay (CellTiter-Blue); type: cell-based; conditions: Homo sapiens, 2D model
Description: (§4) Cell lines RXF 1183L, RXF 1220L, RXF 1781L, RXF 393L and RXF 486L were established at Oncotest from the corresponding human patient-derived xenograft. The cell lines 786-O, A-498, Caki-1 and SN12C were purchased from NCI (National Cancer Institute, Bethesda, Md., USA). ACHN was purchased from ECACC (European Collection of Cell Cultures, Salisbury, UK). Authenticity of cell lines was confirmed at the DSMZ by STR (short tandem repeat) analysis, a PCR based DNA-fingerprinting methodology.
(§5) Cell lines were routinely passaged once or twice weekly and maintained in culture for up to 20 passages. All cells were grown at 37° C. in a humidified atmosphere with 5% CO2 in RPMI 1640 medium (25 mM HEPES, with L-glutamine, # FG1385, Biochrom, Berlin, Germany) supplemented with 10% (v/v) fetal calf serum (Sigma, Taufkirchen, Germany) and 0.1 mg/mL gentamicin (Life Technologies, Karlsruhe, Germany).
(§6) Bezafibrate was dissolved at a concentration of 100 mM in 100% Methanol and next 1:5 diluted with cell culture media (20 mM, 20% Methanol). Starting with this solution, serial dilutions (1:1.6) were prepared with cell culture medium. Next, 150 μL of the serial dilutions were transferred to the assay plates upon removing the cell culture media of each well (complete change of medium on assay plates). Thus the final test concentrations were 10,240, 6,400, 4,000, 2,500, 1,563, 977, 610, and 381 μM. The maximum methanol concentrations were 6% and 10%. No precipitation was observed.
(§7) Cells were harvested from exponential phase cultures, counted and plated in 96-well flat-bottom microtiter plates at a cell density of 4,000-12,000 cells/well depending on the cell line's growth rate. After a 24 hour recovery period to allow the cells to resume exponential growth, test compounds were added. Compounds were applied at 8 to 10 concentrations in duplicate and treatment continued for 96 hour. After 96 hour treatment of cells, 20 μL/well CellTiter-Blue® reagent was added. Following an incubation period of up to four hours, fluorescence (FU) was measured by using the Enspire Multimode Plate Reader (excitation λ=531 nm, emission λ=615 nm).
(§8) For calculations, the mean values of duplicate/quadruplicate (untreated control) data were used. Sigmoidal concentration-response curves were fitted to the data points (T/C values) obtained for each cell line using 4 parameter non-linear curve fit.

ACHN = experiment: In vitro 2D assay (CellTiter-Blue); type: cell-based; conditions: Homo sapiens, 2D model
Description: as §4, §5, §6, §7, §8

A-498 = experiment: In vitro 2D assay (CellTiter-Blue); type: cell-based; conditions: Homo sapiens, A498, 2D model, 96 hour treatment
Description: as §4, §5, §6, §7, §8

SN12C = experiment: In vitro 2D assay (CellTiter-Blue); type: cell-based; conditions: Homo sapiens, 2D model, 96 hour treatment
Description: as §4, §5, §6, §7, §8

RXF 1183L = experiment: In vitro 2D assay (CellTiter-Blue); type: cell-based; conditions: Homo sapiens, 2D model, 96 hour treatment
Description: as §4, §5, §6, §7, §8

Caki-1 = experiment: In vitro 2D assay (CellTiter-Blue); type: cell-based; conditions: Homo sapiens, 2D model, 96 hour treatment
Description: as §4, §5, §6, §7, §8

RXF 486L = experiment: In vitro 2D assay (CellTiter-Blue); type: cell-based; conditions: Homo sapiens, 2D model, 96 hour treatment
Description: as §4, §5, §6, §7, §8

RXF 1781L = experiment: In vitro 2D assay (CellTiter-Blue); type: cell-based; conditions: Homo sapiens, 2D model, 96 hour treatment
Description: as §4, §5, §6, §7, §8

RXF 393L [4] = experiment: In vitro 2D assay (CellTiter-Blue); type: cell-based; conditions: Homo sapiens, 2D model, 96 hour treatment
Description: as §4, §5, §6, §7, §8

786-O [5] = experiment: In vitro 2D assay (CellTiter-Blue); type: cell-based; conditions: Homo sapiens, 786-0, 2D model, 96 hour treatment
Description: as §4, §5, §6, §7, §8

[6] = tested on: human tumor cell models for RCC; experiment: In vitro 2D assay, all cell lines tested; type: cell-based; conditions: 2D model; for IC50: Homo sapiens
Description: as §4, §5
as §6, with “Thus the final test concentrations were 10,240, 6,400, 4,000, 2,500, 1,563, 977, 610, and 381 μM.” left out
as §7, §8

[7] = 96 hour treatment, second run 381 to 10,240 μM, read-out: Absolute IC50
[8] = 96 hour treatment, read-out: Relative IC50
[9] = first run 93 to 4,000 μM, read-out: IC50
[10] = second run 381 to 10,240 μM, read-out: Absolute IC50

Molecule `CC(C)(Oc1ccc(CCNC(=O)c2ccc(Cl)cc2)cc1)C(=O)O` [Bezafibrate] has an IC50 (RXF 393L [1]; read-out: Absolute IC50) of 1.27 mM, an IC50 (RXF 393L [1]; read-out: Relative IC50) of 1.28 mM and an IC50 (786-O [2]; read-out: Absolute IC50) of 1.34 mM. The IC50 (786-O [2]; read-out: Relative IC50) was 1.47 mM, the “Reduction of low-density lipoprotein cholesterol (LDL-C)” value [3] was 15-20% and the Reduction of triglycerides [3] was 30-50%. It also gave an IC50 (RXF 1220L; [7]) of 1.93 mM, an IC50 (RXF 1220L; [8]) of 2.11 mM and an IC50 (RXF 1220L; [9]) of 3.41 mM. It also gave an IC50 (ACHN; [8]) of 1.13 mM, an IC50 (ACHN; [7]) of 1.05 mM and an IC50 (ACHN; [9]) of 1.07 mM. It also gave an IC50 (A-498; [10]) of 2.12 mM, an IC50 (A-498; read-out: Relative IC50) of 2.28 mM and an IC50 (SN12C; read-out: Relative IC50) of 1.21 mM. For the same molecule, the IC50 (SN12C; [10]) was 0.966 mM, the IC50 (RXF 1183L; [10]) was 0.96 mM and the IC50 (RXF 1183L; read-out: Relative IC50) was 1.06 mM. For the same molecule, the IC50 (Caki-1; read-out: Relative IC50) was 1.4 mM, the IC50 (Caki-1; [10]) was 1.23 mM and the IC50 (RXF 486L; read-out: Relative IC50) was 1.33 mM. It also gave an IC50 (RXF 486L; [10]) of 0.987 mM, an IC50 (RXF 1781L; read-out: Relative IC50) of 1.95 mM and an IC50 (RXF 1781L; [10]) of 1.86 mM. The IC50 (RXF 393L [4]; [10]) was 1.04 mM, the IC50 (RXF 393L [4]; read-out: Relative IC50) was 1.64 mM and the IC50 (786-O [5]; [10]) was 795 µM. The IC50 (786-O [5]; read-out: Relative IC50) was 1070 µM, the “IC50 values, overall anti-cancer activity” value ([6]; overall statement) was “low mM range” and the IC50 ([6]; geometric mean over 10 cell lines, second run 381 to 10,240 μM, read-out: Geometric mean absolute IC50) was 1.22 mM. The IC50 ([6]; geometric mean over 10 cell lines, read-out: Geometric mean relative IC50) was 1.56 mM and the IC50 ([6]; first run 93 to 4,000 μM, read-out: Geometric mean absolute IC50) was 1.78 mM.
